Common to all, as to format: functional
The subject of assay [1] is Mycoplasmoides pneumoniae. As to the kind of experiment: Antimicrobial activity against Mycoplasma pneumoniae isolated from human by two fold serial dilution method.
The test system of assay [2] is Ureaplasma urealyticum. As to the kind of experiment: Antimicrobial activity against Ureaplasma urealyticum isolated from human by two fold serial dilution method.
Assay [3] concerns Ureaplasma parvum. The assay can be described thus: Antimicrobial activity against Ureaplasma parvum isolated from human by two fold serial dilution method.
The subject of assay [4] is Mycoplasma fermentans. The assay can be described thus: Antimicrobial activity against Mycoplasma fermentans isolated from human by two fold serial dilution method. The following applies: Mycoplasmopsis fermentans.
Assay [5] concerns Mycoplasma genitalium. The assay can be described thus: Antimicrobial activity against Mycoplasma genitalium isolated from human by two fold serial dilution method. The settings on record: Mycoplasmoides genitalium.
Assay [6] concerns Metamycoplasma hominis. The assay can be described thus: Antimicrobial activity against Mycoplasma hominis isolated from human by two fold serial dilution method.

SMILES strings stand for the structures. ≈ marks a conversion by molar mass, not a printed value.

The MIC50 is the lowest concentration that inhibits either 50% of growth or 50% of the strains tested, depending on the study. A low value points to greater potency. Usually MIC90 stands for an inhibitory concentration at the 90% level, which refers to growth in some studies and to a panel of isolates in others. A higher MIC90 goes with lower susceptibility. A word on the MIC: it is the smallest concentration in the dilution series that meets the test's criterion for growth inhibition. The low end stands for greater potency, the high end for weaker potency. Consider `CC[C@H]1OC(=O)[C@H](C)[C@@H](O[C@H]2C[C@@](C)(OC)[C@@H](O)[C@H](C)O2)[C@H](C)[C@@H](O[C@@H]2O[C@H](C)C[C@H](N(C)C)[C@H]2O)[C@](C)(O)C[C@@H](C)CN(C)[C@H](C)[C@@H](O)[C@]1(C)O` [AZITHROMYCIN], for which the MIC50 in assay [1] was 0.25 ng/mL (≈ 0.334 nM); in assay [2], 2000 ng/mL (≈ 2670 nM); in assay [3] it was 2000 ng/mL (≈ 2670 nM); in assay [4] it was 500 ng/mL (≈ 668 nM). Further, the MIC90 in assay [1] is 0.5 ng/mL (≈ 0.668 nM); in assay [2], 4000 ng/mL (≈ 5340 nM); in assay [3], 4000 ng/mL (≈ 5340 nM); in assay [4], 500 ng/mL (≈ 668 nM). In assay [5], this compound returned a minimal inhibitory concentration (MIC) not above 0.032 ng/mL.

As for `CCC[C@@H]1C[C@@H](C(=O)N[C@@H]([C@H]2O[C@H](SC)[C@H](O)[C@@H](O)[C@H]2O)[C@H](C)Cl)N(C)C1` [CLINDAMYCIN], in assay [6], the minimal inhibitory concentration (MIC) was not above 8 ng/mL, the MIC50 is not above 8 ng/mL and the MIC90 turned out to be 16 ng/mL (≈ 37.6 nM). In assay [4], this compound displayed an MIC50 of 16 ng/mL (≈ 37.6 nM) and an MIC90 of 31 ng/mL (≈ 72.9 nM).

Regarding `C[C@H]1c2cccc(O)c2C(=O)C2=C(O)[C@]3(O)C(=O)C(C(N)=O)=C(O)[C@@H](N(C)C)[C@@H]3[C@@H](O)[C@@H]21.O` [DOXYCYCLINE], the MIC50 in assay [6] amounted to 125 ng/mL; in assay [1] it was 125 ng/mL; in assay [2], 1000 ng/mL; in assay [3], 8000 ng/mL; in assay [4], 125 ng/mL. In addition, the MIC90 in assay [6] worked out at 8000 ng/mL; in assay [1], 250 ng/mL; in assay [2], 16000 ng/mL; in assay [3] it was 16000 ng/mL; in assay [4], 500 ng/mL. The minimum inhibitory concentration (MIC) in assay [5] is not above 8 ng/mL.

For `C[C@H]1COc2c(N3CCN(C)CC3)c(F)cc3c(=O)c(C(=O)O)cn1c23.C[C@H]1COc2c(N3CCN(C)CC3)c(F)cc3c(=O)c(C(=O)O)cn1c23.O` [LEVOFLOXACIN], the MIC50 in assay [6] was 250 ng/mL; in assay [1], 500 ng/mL; in assay [2], 500 ng/mL; in assay [3] it was 500 ng/mL; in assay [4], 31 ng/mL. Moreover, the MIC90 in assay [6] came out at 500 ng/mL; in assay [1], 500 ng/mL; in assay [2], 1000 ng/mL; in assay [3], 2000 ng/mL; in assay [4], 125 ng/mL. Besides, the minimal inhibitory concentration (MIC) in assay [2] was 500 ng/mL; in assay [5], 125 ng/mL.

Take `CC(=O)NC[C@H]1CN(c2ccc(N3CCOCC3)c(F)c2)C(=O)O1` [LINEZOLID]: the MIC50 was 2000 ng/mL (≈ 5930 nM) in assay [6], 64000 ng/mL (≈ 190000 nM) in assay [1], more than 256000 ng/mL in assay [3] and 1000 ng/mL (≈ 2960 nM) in assay [4]. Further, the MIC90 in assay [6] was 4000 ng/mL (≈ 11900 nM); in assay [1] it was 128000 ng/mL (≈ 379000 nM); in assay [2], more than 256000 ng/mL; in assay [3], more than 256000 ng/mL; in assay [4], 4000 ng/mL (≈ 11900 nM). Also, the figures for the minimum inhibitory concentration (MIC) in assay [2] and in assay [5] were not below 256000 ng/mL and 4000 ng/mL (≈ 11900 nM), respectively.

For `CC[C@H]1OC(=O)[C@@](C)(F)C(=O)[C@H](C)[C@@H](O[C@@H]2O[C@H](C)C[C@H](N(C)C)[C@H]2O)[C@](C)(OC)C[C@@H](C)C(=O)[C@H](C)[C@H]2N(CCCCn3cc(-c4cccc(N)c4)nn3)C(=O)O[C@]12C` [SOLITHROMYCIN], the MIC50 in assay [6] was 4 ng/mL (≈ 4.73 nM); in assay [1], 0.032 ng/mL (≈ 0.0379 nM); in assay [2], 8 ng/mL (≈ 9.47 nM); in assay [3], 8 ng/mL (≈ 9.47 nM); in assay [4], not above 8 ng/mL. Moreover, the MIC90 in assay [6] was 8 ng/mL (≈ 9.47 nM); in assay [1], 0.125 ng/mL (≈ 0.148 nM); in assay [2], 31 ng/mL (≈ 36.7 nM); in assay [3], 16 ng/mL (≈ 18.9 nM); in assay [4] it was not above 8 ng/mL. For the same compound, the MIC in assay [4] was not above 8 ng/mL; in assay [5] it was not above 0.032 ng/mL.

Take `CC[C@H]1OC(=O)[C@H](C)C(=O)[C@H](C)[C@@H](O[C@@H]2O[C@H](C)C[C@H](N(C)C)[C@H]2O)[C@](C)(OC)C[C@@H](C)C(=O)[C@H](C)[C@H]2N(CCCCn3cnc(-c4cccnc4)c3)C(=O)O[C@]12C` [TELITHROMYCIN]: the MIC50 is 250 ng/mL (≈ 308 nM) in assay [6]; 0.25 ng/mL (≈ 0.308 nM) in assay [1]; 63 ng/mL (≈ 77.6 nM) in assay [2]; 63 ng/mL (≈ 77.6 nM) in assay [3]; not above 8 ng/mL in assay [4]. In addition, the MIC90 was 500 ng/mL (≈ 616 nM) in assay [6]; 1 ng/mL (≈ 1.23 nM) in assay [1]; 250 ng/mL (≈ 308 nM) in assay [2]; 125 ng/mL (≈ 154 nM) in assay [3]; 16 ng/mL (≈ 19.7 nM) in assay [4]. For the same compound, the minimum inhibitory concentration (MIC) in assay [5] is not above 0.03 ng/mL.
